What was measured:
Assay in all cases: relative viability (nuclei count vs DMSO), 5 days (fraction); higher = more cells survive
[1] = compound: COc1cc2nccc(Oc3ccc(NC(=O)C4(C(=O)Nc5ccc(F)cc5)CC4)cc3)c2cc1OC [Cabozantinib] + Nc1ncn([C@H]2C[C@H](O)[C@@H](CO)O2)c(=O)n1 [Decitabine] (partner 2 µM)
Outline: (§1)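 Relative viability equals treated-well nuclei counts divided by vehicle-well nuclei counts. Counts came from 4× images of lung cancer cell lines grown in 1536-well plates for 5 days after pin-tool dosing on the day after seeding. Dosing used one drug alone or a fixed anchor-drug dose plus five library-drug doses (not always all listed) in √10 steps, and values are medians of duplicate plates.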

Zosuquidar + Alpelisib = compound: O[C@@H](COc1cccc2ncccc12)CN1CCN([C@@H]2c3ccccc3[C@@H]3[C@H](c4ccccc42)C3(F)F)CC1 [Zosuquidar] + Cc1nc(NC(=O)N2CCC[C@H]2C(N)=O)sc1-c1ccnc(C(C)(C)C(F)(F)F)c1 [Alpelisib] (partner 2 µM)
Outline: as §1

Cabozantinib + Foretinib = compound: COc1cc2nccc(Oc3ccc(NC(=O)C4(C(=O)Nc5ccc(F)cc5)CC4)cc3)c2cc1OC [Cabozantinib] + COc1cc2c(Oc3ccc(NC(=O)C4(C(=O)Nc5ccc(F)cc5)CC4)cc3F)ccnc2cc1OCCCN1CCOCC1 [Foretinib] (partner 0.25 µM)
Outline: as §1

Kobe2602 + Linsitinib = compound: C1=CC(=CC=C1NC(=S)NNC2=C(C=C(C=C2[N+](=O)[O-])C(F)(F)F)[N+](=O)[O-])F [Kobe2602] + C[C@]1(O)C[C@@H](c2nc(-c3ccc4ccc(-c5ccccc5)nc4c3)c3c(N)nccn32)C1 [Linsitinib] (partner 1 µM)
Outline: as §1

Row | Cell Line | relative viability ([1]; first compound 0.02 µM) | relative viability ([1]; first compound 0.06325 µM) | relative viability ([1]; first compound 0.2 µM) | relative viability ([1]; first compound 0.6325 µM) | relative viability ([1]; first compound 2 µM) | relative viability (Zosuquidar + Alpelisib; first compound 0.01 µM) | relative viability (Zosuquidar + Alpelisib; first compound 0.03162 µM) | relative viability (Zosuquidar + Alpelisib; first compound 0.1 µM) | relative viability (Zosuquidar + Alpelisib; first compound 0.3162 µM) | relative viability (Zosuquidar + Alpelisib; first compound 1 µM) | relative viability (Cabozantinib + Foretinib; first compound 0.02 µM) | relative viability (Cabozantinib + Foretinib; first compound 0.06325 µM) | relative viability (Cabozantinib + Foretinib; first compound 0.2 µM) | relative viability (Cabozantinib + Foretinib; first compound 0.6325 µM) | relative viability (Cabozantinib + Foretinib; first compound 2 µM) | relative viability (Kobe2602 + Linsitinib; first compound 0.2 µM) | relative viability (Kobe2602 + Linsitinib; first compound 0.6325 µM) | relative viability (Kobe2602 + Linsitinib; first compound 2 µM) | relative viability (Kobe2602 + Linsitinib; first compound 6.325 µM) | relative viability (Kobe2602 + Linsitinib; first compound 20 µM)
1 | HOP-62 | 0.241 | 0.214 | 0.22 | 0.225 | 0.181 | 1.05 | 0.79 | 0.907 | 1.08 | 0.988 | 1.17 | 1.19 | 1.06 | 1 | 1.24 | 0.837 | 1.11 | 0.974 | 1.01 | 1.12
2 | HCC-366 | 0.351 | 0.393 | 0.336 | 0.305 | 0.354 | 0.519 | 0.449 | 0.337 | 0.438 | 0.401 | 0.941 | 0.948 | 0.95 | 0.905 | 0.888 | 0.711 | 0.743 | 0.629 | 0.664 | 0.647
3 | NCI-H3122 | 0.394 | 0.413 | 0.422 | 0.411 | 0.467 | 0.714 | 0.769 | 0.679 | 0.764 | 0.763 | 0.947 | 0.973 | 0.949 | 0.892 | 0.946 | 1.01 | 1.05 | 1.01 | 1.06 | 1.11
4 | NCI-H1355 | 0.401 | 0.372 | 0.33 | 0.363 | 0.367 | 0.851 | 0.801 | 0.596 | 0.971 | 0.87 | 1.08 | 1.1 | 1.03 | 1.08 | 0.949 | 0.784 | 0.782 | 0.749 | 0.769 | 0.787
5 | A549 | 0.298 | 0.26 | 0.263 | 0.313 | 0.306 | 0.688 | 0.745 | 0.678 | 1.03 | 0.877 | 1.09 | 1.17 | 0.964 | 0.909 | 0.942 | 0.562 | 0.687 | 0.583 | 0.524 | 0.578
6 | NCI-H1734 | 0.545 | 0.53 | 0.523 | 0.508 | 0.53 | 0.815 | 0.666 | 0.631 | 0.809 | 0.643 | 0.916 | 0.864 | 0.878 | 0.858 | 0.769 | 0.895 | 0.899 | 0.849 | 0.964 | 0.897
7 | LXF-289 | 0.353 | 0.395 | 0.392 | 0.433 | 0.377 | 0.994 | 1.04 | 0.97 | 1.02 | 1.01 | 0.974 | 1 | 0.934 | 1.02 | 0.993 | 0.944 | 0.985 | 0.941 | 0.952 | 0.919
8 | SK-LU-1 | 0.583 | 0.698 | 0.668 | 0.631 | 0.627 | 0.954 | 1.04 | 1.17 | 1.26 | 0.895 | 0.868 | 1.01 | 0.904 | 0.845 | 0.699 | 1.05 | 1.15 | 1.04 | 1.04 | 1.27
9 | NCI-H2087 | 0.311 | 0.279 | 0.303 | 0.306 | 0.212 | 1 | 1.28 | 1.2 | 1.19 | 1.15 | 1.17 | 1 | 1.3 | 1.2 | 0.967 | 1.11 | 0.864 | 0.882 | 0.939 | 0.94
10 | SK-MES-1 | 0.449 | 0.412 | 0.373 | 0.431 | 0.399 | 0.876 | 0.95 | 0.692 | 1.07 | 0.987 | 0.936 | 1.1 | 0.948 | 1.09 | 0.802 | 1 | 1.26 | 1.04 | 1.07 | 1.07
11 | HCC-78 |  | 0.704 | 0.503 | 0.489 | 0.487 | 0.343 | 0.313 |  | 0.325 | 0.379 |  | 0.684 | 0.549 | 0.541 | 0.518 | 0.61 | 0.495 |  | 0.459 | 0.611
12 | NCI-H1793 | 0.4 | 0.555 |  | 0.469 | 0.489 | 0.717 | 0.665 |  | 0.825 | 0.776 | 0.738 | 1.07 | 0.645 | 0.678 | 0.617 | 0.856 | 0.883 | 0.806 | 0.831 | 0.958
13 | H3255 | 0.618 | 0.636 |  | 0.685 | 0.644 | 0.712 | 0.769 | 0.492 | 0.797 | 0.689 | 0.773 | 1.01 |  | 0.979 | 1.07 | 0.875 | 1.09 | 0.941 | 0.838 | 0.87
14 | HCC-15 | 0.562 | 0.788 | 0.683 | 0.644 | 0.536 | 0.922 | 0.88 | 0.869 | 0.932 | 0.869 | 1.26 | 1.13 | 1.06 | 1.04 | 1.07 | 0.881 | 0.919 | 0.872 | 0.832 | 0.899
15 | PC-14 | 0.237 | 0.203 |  | 0.219 | 0.249 | 0.916 | 1.05 | 0.864 | 0.944 | 0.923 | 0.99 | 1 |  | 1.05 | 0.976 | 0.946 | 0.986 | 0.929 | 0.94 | 0.929
16 | NCI-H2023 | 0.261 | 0.235 | 0.239 | 0.234 | 0.24 | 0.601 | 0.636 | 0.6 | 0.548 | 0.613 | 0.917 | 1.2 | 1.05 | 0.956 | 0.896 | 0.575 | 0.728 | 0.528 | 0.586 | 0.682
17 | COR-L23 | 0.449 | 0.371 | 0.445 | 0.441 | 0.419 | 0.88 | 0.783 | 0.789 | 0.902 | 0.723 | 0.978 | 1.1 | 0.976 | 0.977 | 0.95 | 0.798 | 1.09 | 0.941 | 0.894 | 0.939
18 | EMC-BAC-2 | 0.998 | 0.963 | 1.04 | 0.994 | 1.13 | 0.715 | 0.793 | 0.677 | 0.82 | 0.761 | 1.02 | 0.973 | 1.04 | 0.982 | 0.962 | 0.794 | 0.869 | 0.817 | 0.796 | 0.793
19 | LCLC-103H | 0.716 | 0.791 | 0.722 | 0.721 | 0.748 | 1.02 | 1.12 | 1.01 | 1.02 | 0.926 | 0.909 | 0.695 | 0.778 | 0.745 | 0.756 | 1.05 | 1.1 | 1.1 | 1.09 | 0.984
20 | NCI-H1395 | 0.786 | 0.741 | 0.682 | 0.713 | 0.654 | 1 | 1.01 | 0.819 | 1.17 | 1.17 | 0.93 | 1.17 | 1.07 | 1.06 | 0.932 | 0.992 | 1 | 1.04 | 1.05 | 1.12
21 | NCI-H23 |  | 0.348 | 0.337 | 0.303 | 0.327 | 0.669 | 0.718 | 0.728 | 0.704 | 0.687 |  | 1.03 | 0.989 | 0.904 | 0.836 | 0.528 | 0.706 | 0.477 | 0.652 | 0.525
22 | NCI-H322M | 0.701 | 0.719 | 0.675 | 0.798 | 0.744 | 0.836 | 0.739 | 0.648 | 0.859 | 0.728 | 0.967 | 1.21 | 0.899 | 0.874 | 0.931 | 0.88 | 1.01 | 0.883 | 1 | 0.921
23 | NCI-H2126 | 0.531 | 0.546 | 0.618 | 0.643 | 0.59 | 0.755 | 0.741 | 0.554 | 0.837 | 0.797 |  | 1.36 | 1.22 | 1.06 | 1.17 | 0.718 | 0.659 | 0.7 | 0.704 | 0.765
24 | NCI-H647 | 0.383 | 0.534 | 0.441 | 0.433 | 0.391 | 1.25 | 1.12 | 1.28 | 1.11 | 1.39 | 1.23 | 1.1 | 1.1 | 1.14 | 0.981 | 1.12 | 1.45 | 1.25 | 0.864 | 1.19
25 | LU99A | 0.843 | 1.01 | 0.854 | 0.787 | 0.882 | 0.472 | 0.507 | 0.475 | 0.617 | 0.529 | 0.805 | 0.922 | 0.906 | 0.784 | 0.838 | 0.538 | 0.53 | 0.471 | 0.585 | 0.631
26 | NCI-H1666 | 0.649 | 0.754 | 0.712 | 0.711 | 0.752 | 0.876 | 1.04 | 1.04 | 0.912 | 0.863 | 1.04 | 1.06 | 0.99 | 0.949 | 0.981 | 0.683 | 0.76 |  | 0.713 | 0.76
27 | NCI-H596 | 1.06 | 1.39 | 1.07 | 1.01 | 0.98 | 0.467 | 0.512 | 0.502 | 0.589 | 0.591 | 0.89 | 1.09 | 0.9 | 0.906 | 0.777 | 1.15 | 1.19 | 1.09 | 1.06 | 0.986

— the supplement of paper PMC10307832
